Measured values: patent US6749850B1, “Methods, compositions and kits for promoting recovery from damage to the central nervous system” (The General Hospital Corporation, priority 1999, dated 2004)

B1: BDNF: polypeptide growth factor, administered conjointly with bone marrow cells in a cited study (Chen et al. 2000) (protein, UniProt P23560 19-247, looked up)
Neurotrophic factor BDNF …: APMKEANIRGQGGLAYPGVRTHGTLESVNGPKAGSRGLTSLADTFEHVIEELLDEDQKVRPNEENNKDADLYTSRVMLSSQVPLEPPLLFLLEEYKNYLDAANMSMRVRRHSDPARRGELSVCDSISEWVTAADKKTAVDMSGGTVTVLEKVPVSKGQLKQYFYETKCNPMGYTKEGCRGIDKRHWNSQCRTTQSYVRALTMDSKKRIGWRFIRIDTSCVCTLTIKRGR

Experiments:
[1] = test system: rat stroke model (focal cerebral infarction, middle cerebral artery electrocoagulation); assay: Example 1: sensorimotor behavioural tests after intracisternal treatment in rat stroke model; type: in vivo
Protocol: In this example, fetal mouse neural stem cells (NSC) with or without basic fibroblast growth factor (bFGF) were administered intracisternally in a model of stroke recovery in rats. Male Sprague-Dawley rats, 300-350 grams, were handled for one week before surgery. They received an antibiotic, cefazolin sodium (40 mg/kg, i.p.), one day before stroke surgery. On the day of stroke surgery, animals were anesthetized by 2% halothane in a […]/oxygen mixture (2:1). Focal cerebral infarction, (stroke) was performed by proximal electrocoagulation of the middle cerebral artery, as described previously (Kawamata et al. (1999) Exp. Neurol. 158, 89-96; Tamura et al. (1981) J. Cereb. Blood Flow Metab. 1, 53-60). […] This technique produces a robust and reproducible infarct, or region of cell death, in the dorsolateral cerebral cortex and underlying striatum. Animals received another injection of cefazolin sodium (40 mg/kg, i.p.) immediately after surgery. They were then allowed to awaken from anesthesia.
Twenty-four hours after stroke surgery, animals received an intracisternal injection of either: (1) vehicle, (2) NSC (10^6 cells), (3) bFGF (0.5 μg), or (4) NSC+bFGF. Intracisternal injection in 50 μl total volume was done through percutaneous injection into the cisterna magna under halothane anesthesia. This same procedure was repeated two days later so that animals received treatment on days 1 and 3 following stroke. Cyclosporin, an immunosuppressant, was administered at 10 mg/kg, i.p. for the duration of the experiment.
The cerebral infarcts produced by the procedure cause sensorimotor dysfunction of the contralateral hindlimb and forelimb. For the next month following stroke, a number of neurological tests were done to assess sensorimotor function of the contralateral limbs. These tests include both the forelimb and hindlimb placing tests which test the animal's ability to place the limb on a tabletop in response to visual, tactile, proprioceptive, and whisker stimulation. […]

[2] = test system: rat stroke model (focal cerebral infarction, middle cerebral artery electrocoagulation); assay: Example 2: behavioural tests after intracerebral NSC and intracisternal bFGF in rat stroke model; type: in vivo; settings: single administration one day after stroke
Protocol: In a second experiment, NSC were injected directly into the brain into tissue surrounding focal strokes. bFGF was injected intracisternally, as before. In this experiment only one administration of NSC or bFGF was performed at one day after stroke.
In this experiment, animals were handled for one week before surgery. In addition, they were trained on an additional test, the paw reaching test (see below) for 10 days before surgery. As before, they received cefazolin sodium (40 mg/kg, i.p.) before surgery. On the day of surgery, electrocoagulation of the proximal middle cerebral artery was done, as described previously (Kawamata et al. (1996) J. Cereb. Blood Flow Metab. 16, 542-547; Kawamata et al. (1997) Proc. Nat. Acad Sci. 94, 8179-8184; Kawamata et al. (1999) Exp. Neurol. 158, 89-96). They received another injection of cefazolin sodium, 40 mg/kg, i.p. after surgery.
At one day after stroke, animals received either: (1) vehicle injection into periinfarct tissue, and vehicle injection into the cisterna magna, (2) NSC (10^6 cells) into periinfarct tissue and vehicle into the cisterna magna, (3) vehicle into periinfarct tissue and bFGF (0.5 μg) into the cisterna magna or (4) the combination NSC (10^6 cells) into periinfarct tissue and bFGF (0.5 μg) into the cisterna magna.
These injections were done with a volume of 25 μl each under 2% halothane anesthesia. […]

animal models of stroke = settings: administered starting a day or more after stroke; cited from earlier work
rat stroke model = settings: BDNF administered conjointly with bone marrow cells; cited from earlier work

Molecule | recovery on limb placing tests (forelimb and hindlimb) ([1]; intracisternal on days 1 and 3 after stroke, NSC 10^6 cells, bFGF 0.5 μg, compared to placebo, FIGS. 1A-1B) | body swing test ([1]; intracisternal on days 1 and 3 after stroke, compared to placebo, FIG. 1C) | sensorimotor recovery of the contralateral limbs (summary) ([1]; intracisternal starting one day after stroke) | behavioral outcome overall (summary of tests) [2] | recovery on forelimb and hindlimb placing tests ([2]; NSC 10^6 cells periinfarct, bFGF 0.5 μg cisterna magna, compared to placebo, FIGS. 2A-2B) | recovery on tests of sensorimotor function of the impaired limbs (animal models of stroke) | recovery in a rat stroke model (rat stroke model)
bFGF: basic fibroblast growth factor, a protein that supports survival and axonal outgrowth from neurons | significantly enhanced recovery compared to placebo | No differences | significantly enhance sensorimotor recovery | improved behavioral outcome on some tests | superiority in recovery | recover more quickly and to a greater extent | 
B1 |  |  |  |  |  |  | improve recovery
